± gives the standard deviation of the averaged measurements.
Test system: KHOS-240S
Experiment: relative viability vs DMSO control (72 h) (fraction); higher = more viable cells
Procedure, shortened: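 Relative viability is percent growth read by ATPLite and averaged over up to triplicate wells. Sarcoma cells were seeded in 384-well plates to reach 80–90% confluence and given 2.5 µl of serially diluted compound after 24 h, from source plates of 10 mM to 0.0002 mM. Incubation lasted 72 h at 37 °C, 5% CO2, with 0.1% DMSO vehicle and a 5 µM positive control, and the data were rescaled so 1 equals full and 0 equals none.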

| Compound | relative viability (0.00017 µM) | relative viability (0.00051 µM) | relative viability (0.00152 µM) | relative viability (0.00457 µM) | relative viability (0.01372 µM) | relative viability (0.04115 µM) | relative viability (0.1235 µM) | relative viability (0.3704 µM) | relative viability (1.111 µM) | relative viability (3.333 µM) | relative viability (10 µM) |
| --- | --- | --- | --- | --- | --- | --- | --- | --- | --- | --- | --- |
| CCc1cc2c(cc1N1CCC(N3CCOCC3)CC1)C(C)(C)c1[nH]c3cc(C#N)ccc3c1C2=O [Alectinib] | 1.06 ± 0.048 | 1.09 ± 0.075 | 1.09 ± 0.064 | 1.08 ± 0.066 | 1.06 ± 0.072 | 1.07 ± 0.069 | 1.05 ± 0.074 | 0.998 ± 0.079 | 0.996 ± 0.063 | 0.984 ± 0.054 | 0.971 ± 0.073 |
| C[C@@H](c1ccc2nccn2c1)n1nnc2ncc(-c3cnn(C)c3)nc21 [Volitinib] | 1.041 ± 0.0092 | 1.044 ± 0.0082 | 1.07 ± 0.036 | 1.07 ± 0.024 | 1.077 ± 0.006 | 1.101 ± 0.007 | 1.09 ± 0.013 | 1.078 ± 0.0062 | 1.083 ± 0.0058 | 1.049 ± 0.0046 | 1.05 ± 0.021 |
| CC1(C)CNc2cc(NC(=O)c3cccnc3NCc3ccncc3)ccc21 [Motesanib] | 0.972 ± 0.026 | 0.982 ± 0.027 | 0.973 ± 0.03 | 0.992 ± 0.025 | 0.983 ± 0.018 | 0.96 ± 0.023 | 0.97 ± 0.013 | 0.931 ± 0.042 | 0.922 ± 0.075 | 0.874 ± 0.066 | 0.803 ± 0.03 |
| CN1CCN(c2ccc3nc(-c4c(N)c5c(F)cccc5[nH]c4=O)[nH]c3c2)CC1 [Dovitinib] | 1.07 ± 0.031 | 1.04 ± 0.051 | 1.06 ± 0.046 | 1.02 ± 0.023 | 1.05 ± 0.033 | 1.08 ± 0.019 | 0.979 ± 0.022 | 0.891 ± 0.059 | 0.548 ± 0.014 | 0.289 ± 0.027 | 0.0854 ± 0.0022 |
| CNC(=O)c1cc(Oc2ccc(NC(=O)Nc3ccc(Cl)c(C(F)(F)F)c3)c(F)c2)ccn1 [Regorafenib] | 1.05 ± 0.055 | 1.09 ± 0.052 | 1.07 ± 0.051 | 1.07 ± 0.053 | 1.1 ± 0.059 | 1.1 ± 0.049 | 1.09 ± 0.04 | 1.04 ± 0.014 | 0.96 ± 0.09 | 0.812 ± 0.045 | 0.5087 ± 0.00089 |
| Cc1nc(NC(=O)N2CCC[C@H]2C(N)=O)sc1-c1ccnc(C(C)(C)C(F)(F)F)c1 [Alpelisib] | 1.05 ± 0.071 | 1.07 ± 0.02 | 1.03 ± 0.054 | 1.05 ± 0.054 | 1.02 ± 0.061 | 1.01 ± 0.048 | 0.914 ± 0.055 | 0.907 ± 0.039 | 0.825 ± 0.065 | 0.791 ± 0.04 | 0.697 ± 0.054 |
| CCN1CCN(Cc2ccc(Nc3ncc(F)c(-c4cc(F)c5nc(C)n(C(C)C)c5c4)n3)nc2)CC1 [Abemaciclib] | 1.04 ± 0.038 | 1.07 ± 0.061 | 1.07 ± 0.059 | 1.05 ± 0.039 | 1.04 ± 0.048 | 1 ± 0.077 | 0.892 ± 0.071 | 0.834 ± 0.028 | 0.736 ± 0.024 | 0.7 ± 0.014 | 0.539 ± 0.025 |
| CC[C@H](Nc1ncnc2[nH]cnc12)c1nc2cccc(F)c2c(=O)n1-c1ccccc1 [Idelalisib] | 1.1 ± 0.062 | 1.11 ± 0.064 | 1.11 ± 0.056 | 1.1 ± 0.065 | 1.09 ± 0.071 | 1.08 ± 0.068 | 1.08 ± 0.051 | 1.06 ± 0.078 | 1.03 ± 0.058 | 0.942 ± 0.074 | 0.901 ± 0.079 |
| C=CC(=O)N1CCC[C@@H](n2nc(-c3ccc(Oc4ccccc4)cc3)c3c(N)ncnc32)C1 [Ibrutinib] | 1.03 ± 0.038 | 1.08 ± 0.064 | 1.09 ± 0.078 | 1.09 ± 0.079 | 1.05 ± 0.054 | 1.08 ± 0.053 | 1.05 ± 0.1 | 1.05 ± 0.081 | 0.979 ± 0.045 | 0.884 ± 0.035 | 0.587 ± 0.015 |
| COc1cc2nccc(Oc3ccc(NC(=O)Nc4cc(C)on4)c(Cl)c3)c2cc1OC [Tivozanib] | 1.07 ± 0.061 | 1.07 ± 0.061 | 1.09 ± 0.071 | 1.09 ± 0.059 | 1.08 ± 0.025 | 1.07 ± 0.041 | 1.06 ± 0.018 | 1.045 ± 0.0038 | 1.02 ± 0.042 | 0.908 ± 0.027 | 0.561 ± 0.02 |
| C[C@]1(O)C[C@@H](c2nc(-c3ccc4ccc(-c5ccccc5)nc4c3)c3c(N)nccn32)C1 [Linsitinib] | 1.08 ± 0.029 | 1.1 ± 0.054 | 1.08 ± 0.026 | 1.07 ± 0.045 | 1.07 ± 0.025 | 1.07 ± 0.048 | 0.992 ± 0.018 | 0.917 ± 0.018 | 0.911 ± 0.026 | 0.845 ± 0.036 | 0.56 ± 0.0069 |
| C=CC(=O)Nc1cccc(Oc2nc(Nc3ccc(N4CCN(C)CC4)cc3)nc3ccsc23)c1 [Olmutinib] | 1.01 ± 0.015 | 1.03 ± 0.014 | 1.04 ± 0.018 | 1.02 ± 0.025 | 1.01 ± 0.024 | 1.04 ± 0.011 | 1.03 ± 0.032 | 0.997 ± 0.04 | 0.998 ± 0.035 | 0.865 ± 0.036 | 0.39 ± 0.017 |
| O=C(Nc1cnn2ccc(N3CCC[C@@H]3c3cc(F)ccc3F)nc12)N1CC[C@H](O)C1 [Larotrectinib] | 1.1 ± 0.045 | 1.07 ± 0.064 | 1.1 ± 0.091 | 1.07 ± 0.093 | 1.05 ± 0.066 | 1.05 ± 0.02 | 1.09 ± 0.066 | 1.09 ± 0.068 | 1.06 ± 0.06 | 1.07 ± 0.079 | 1.05 ± 0.082 |

From the supplement of paper PMC10883282
